{"source": "patent US11034710B2", "about": "“CDK9 inhibitors and polymorphs thereof for use as agents for treatment of cancer” (SUMITOMO DAINIPPON PHARMA ONCOLOGY, INC., priority 2018, dated 2021)", "key": {"[1]": {"assay": "Four-week stability of Form B obtained using various Step 4.1 reaction conditions (40° C./75% RH, HPLC)", "type": "physicochemical", "conditions": "40° C. ± 2° C., 75 ± 5% RH, sealed vial", "text": "The results of the stability study appear in Table 21."}, "[2]": {"assay": "Dynamic vapor sorption (DVS) test of amorphous Form A", "type": "physicochemical", "conditions": "80% relative humidity"}, "[3]": {"assay": "Stability study of amorphous Form A (decomposition to compound A-2)", "type": "physicochemical"}, "[4]": {"assay": "Phase I study: plasma pharmacokinetics of compound of structure (I) and alvocidib", "type": "in vivo, human", "text": "Patients with advanced metastatic or progressive solid tumors who were refractory to, or intolerant of, established therapy known to provide clinical benefit for their condition were enrolled. Cohorts of 3-6 patients each received escalating doses of compound of structure (I) using a modified Fibonacci dose escalation approach. Once the optimal dose has been established, additional patients may be enrolled to confirm safety and to explore efficacy.\nThis is an ongoing Phase 1, open-label, dose-escalation, safety, PK and PD study. The proposed starting dose and schedule for oral compound of structure (I) was a 1-mg flat dose once daily (QD) for 14 days followed by a 7-day drug-free recovery period (each cycle=21 days). In the absence of dose-limiting toxicities (DLTs) in the first cohort of at least 3 patients, the dose was increased using a modified Fibonacci dose escalation scheme, and BID dosing commenced according to the dose escalation schedule described in Table 28. The first patient in cohort 6 has been enrolled at 8 mg compound of structure (I) BID. The baseline demographics of the first 14 patients enrolled in the study are described in Table 26.\nPlasma PK parameters of compound of structure (I) and alvocidib were evaluated in Cohorts 1-5 at specific timepoints during the study. Blood was collected from patients in Cohorts 1-5 according to the pharmacokinetic sampling schedule described in Table 29.\nPK parameters were estimated using standard noncompartmental methods. Actual sample collection times were used rather than scheduled collection times. Plasma concentrations below the limit of quantification were treated as 0. Imbedded missing plasma concentrations (e.g., missing values between two observed values) were estimated using linear […]. This is consistent with using the trapezoidal rule to calculate AUC. Other missing plasma concentrations were excluded from calculations to estimate PK parameters."}, "[5]": {"test_system": "patients with advanced solid tumors", "assay": "Phase I study: safety, dose-limiting toxicities and treatment-emergent adverse events", "type": "in vivo, human", "text": "Patients with advanced metastatic or progressive solid tumors who were refractory to, or intolerant of, established therapy known to provide clinical benefit for their condition were enrolled. Cohorts of 3-6 patients each received escalating doses of compound of structure (I) using a modified Fibonacci dose escalation approach. Once the optimal dose has been established, additional patients may be enrolled to confirm safety and to explore efficacy. This is an ongoing Phase 1, open-label, dose-escalation, safety, PK and PD study. The proposed starting dose and schedule for oral compound of structure (I) was a 1-mg flat dose once daily (QD) for 14 days followed by a 7-day drug-free recovery period (each cycle=21 days). In the absence of dose-limiting toxicities (DLTs) in the first cohort of at least 3 patients, the dose was increased using a modified Fibonacci dose escalation scheme, and BID dosing commenced according to the dose escalation schedule described in Table 28. The first patient in cohort 6 has been enrolled at 8 mg compound of structure (I) BID. The baseline demographics of the first 14 patients enrolled in the study are described in Table 26. […] DLT was defined as any one of the following events observed in cycle 1, regardless of investigator attribution, unless there was a clear alternative explanation: • 1. Grade 3 or greater febrile neutropenia • 2. Grade 4 neutropenia for ≥7 consecutive days • 3. Grade 4 thrombocytopenia or Grade 3 thrombocytopenia with clinically significant bleeding or that requires a platelet transfusion • 4. Grade 3 or 4 nonhematologic AEs will be considered dose limiting, regardless of duration aside from the specific parameters described herein • 5. Grade 4 nausea, vomiting, or diarrhea, regardless of duration • 6. […] Any Grade ≥3 elevations in creatinine • 10. Any Grade 5 toxicity"}, "[6]": {"conditions": "patients (% of N = 14), oral dosing, advanced solid tumors"}}, "data": [{"smiles": "CN1CCC(c2c(OP(=O)(O)O)cc(O)c3c(=O)cc(-c4ccccc4Cl)oc23)C(O)C1.Cl", "note": "(stereo not shown) [Form A-11]", "values": [{"measurement": "A-2", "setting": "[1]; 7 days ± 1 day", "result": 6.6, "unit": "%"}, {"measurement": "HPLC Purity of A-5", "setting": "[1]; 7 days ± 1 day", "result": 91.3, "unit": "%"}, {"measurement": "A-2", "setting": "[1]; 14 days ± 1 day", "result": 13.7, "unit": "%"}, {"measurement": "HPLC Purity of A-5", "setting": "[1]; 14 days ± 1 day", "result": 84.12, "unit": "%"}, {"measurement": "A-2", "setting": "[1]; 21 days ± 1 day", "result": 19.0, "unit": "%"}, {"measurement": "HPLC Purity of A-5", "setting": "[1]; 21 days ± 1 day", "result": 78.5, "unit": "%"}, {"measurement": "A-2", "setting": "[1]; 28 days ± 1 day", "result": 22.2, "unit": "%"}, {"measurement": "HPLC Purity of A-5", "setting": "[1]; 28 days ± 1 day", "result": 75.0, "unit": "%"}, {"measurement": "A-2", "setting": "[1]; Initial", "result": 1.02, "unit": "%"}, {"measurement": "HPLC Purity of A-5", "setting": "[1]; Initial", "result": 97.0, "unit": "%"}]}, {"smiles": "CN1CC[C@H](c2c(OP(=O)(O)O)cc(O)c3c(=O)cc(-c4ccccc4Cl)oc23)[C@H](O)C1", "note": "[Form A]", "values": [{"measurement": "weight of water taken in (DVS), hygroscopicity", "setting": "[2]", "result": 12.5, "unit": "%"}, {"measurement": "A-2", "setting": "[1]; 7 days ± 1 day", "result": 0.88, "unit": "%"}, {"measurement": "HPLC Purity of A-5", "setting": "[1]; 7 days ± 1 day", "result": 98.6, "unit": "%"}, {"measurement": "A-2", "setting": "[1]; 14 days ± 1 day", "result": 2.2, "unit": "%"}, {"measurement": "HPLC Purity of A-5", "setting": "[1]; 14 days ± 1 day", "result": 97.5, "unit": "%"}, {"measurement": "A-2", "setting": "[1]; Initial", "result": 0.44, "unit": "%"}, {"measurement": "HPLC Purity of A-5", "setting": "[1]; Initial", "result": 99.2, "unit": "%"}, {"measurement": "decomposition", "setting": "[3]; 40° C. and 75% relative humidity for one week", "result": "accelerated decomposition"}, {"measurement": "degradation to compound A-2", "setting": "[3]; after 10 days at room temperature", "result": 6.85, "unit": "%"}, {"measurement": "degradant trends", "setting": "[3]; stored at −20° C.", "result": "no degradant trends"}]}, {"smiles": "CN1CC[C@H](c2c(O)cc(O)c3c(=O)cc(-c4ccccc4Cl)oc23)[C@H](O)C1", "note": "[alvocidib, 2-(2-chlorophenyl)-5,7-dihydroxy-8-[(3S,4R)-3-hydroxy-1-methylpiperidin-4-yl]chromen-4-one]", "values": [{"measurement": "Tmax", "setting": "[4]; Cohort 5, 6 mg BID oral Formulation No. 401-01, Cycle 1 Day 1, Mean of subjects 501-503", "result": 60, "unit": "min"}, {"measurement": "Tmax", "setting": "[4]; Cohort 5, 6 mg BID oral Formulation No. 401-01, Cycle 1 Day 1, Subject 501", "result": 30, "unit": "min"}, {"measurement": "Tmax", "setting": "[4]; Cohort 5, 6 mg BID oral Formulation No. 401-01, Cycle 1 Day 1, Subject 502", "result": 120, "unit": "min"}, {"measurement": "Tmax", "setting": "[4]; Cohort 5, 6 mg BID oral Formulation No. 401-01, Cycle 1 Day 1, Subject 503", "result": 30, "unit": "min"}, {"measurement": "Tmax", "setting": "[4]; Cohort 5, 6 mg BID oral Formulation No. 401-01, Cycle 1 Day 14, Mean of subjects 501-503", "result": 60, "unit": "min"}, {"measurement": "Tmax", "setting": "[4]; Cohort 5, 6 mg BID oral Formulation No. 401-01, Cycle 1 Day 14, Subject 501", "result": 30, "unit": "min"}, {"measurement": "Tmax", "setting": "[4]; Cohort 5, 6 mg BID oral Formulation No. 401-01, Cycle 1 Day 14, Subject 502", "result": 120, "unit": "min"}, {"measurement": "Tmax", "setting": "[4]; Cohort 5, 6 mg BID oral Formulation No. 401-01, Cycle 1 Day 14, Subject 503", "result": 30, "unit": "min"}]}, {"smiles": "CN1CC[C@H](c2c(OP(=O)(O)O)cc(O)c3c(=O)cc(-c4ccccc4Cl)oc23)[C@H](O)C1", "note": "[compound of structure (I), 2-(2-chlorophenyl)-5-hydroxy-8-((3S,4R)-3-hydroxy-1-methylpiperidin-4-yl)-4-oxo-4H-chromen-7-yl dihydrogen phosphate]", "values": [{"measurement": "toxicity observed to date", "setting": "[5]; oral, Cohorts to date, patients with advanced solid tumors", "result": "no unexplained toxicity, and no evidence of dose-limiting diarrhea or neutropenia"}, {"measurement": "Treatment-emergent adverse events grade ≥ 3: Anemia, Grade 3", "setting": "[5]; [6]", "result": "1 (7%)"}, {"measurement": "Treatment-emergent adverse events grade ≥ 3: Chest Pain, Grade 3", "setting": "[5]; [6]", "result": "1 (7%)"}, {"measurement": "Treatment-emergent adverse events grade ≥ 3: Haematuria, Grade 3", "setting": "[5]; [6]", "result": "1 (7%)"}, {"measurement": "Treatment-emergent adverse events grade ≥ 3: Hypotension, Grade 3", "setting": "[5]; [6]", "result": "1 (7%)"}, {"measurement": "Treatment-emergent adverse events grade ≥ 3: Hypoxia, Grade 3", "setting": "[5]; [6]", "result": "1 (7%)"}, {"measurement": "Treatment-emergent adverse events grade ≥ 3: Malignant Pleural Effusion, Grade 3", "setting": "[5]; [6]", "result": "1 (7%)"}, {"measurement": "Treatment-emergent adverse events grade ≥ 3: Pain, Grade 3", "setting": "[5]; [6]", "result": "1 (7%)"}, {"measurement": "Treatment-emergent adverse events grade ≥ 3: Swelling, Grade 3", "setting": "[5]; [6]", "result": "1 (7%)"}]}]}
